Measured values taken from patent US9096591B2, “Tetracyclic compounds” (Medivation Technologies, Inc., priority 2007, dated 2015).

biological target: T1, human recombinant adrenergic α2B receptor (Homo sapiens, UniProt P18089); assay: Adrenergic α2B radioligand binding ([3H]Rauwolscine); design: Inhibition of ligand binding, Adren. alpha2B: concentration or dose not given beside the values; details: percent inhibition of specific binding
T1 construct: expressed in transfected cells; host or cells: CHO-K1 cells
T1 sequence (P18089 1-450): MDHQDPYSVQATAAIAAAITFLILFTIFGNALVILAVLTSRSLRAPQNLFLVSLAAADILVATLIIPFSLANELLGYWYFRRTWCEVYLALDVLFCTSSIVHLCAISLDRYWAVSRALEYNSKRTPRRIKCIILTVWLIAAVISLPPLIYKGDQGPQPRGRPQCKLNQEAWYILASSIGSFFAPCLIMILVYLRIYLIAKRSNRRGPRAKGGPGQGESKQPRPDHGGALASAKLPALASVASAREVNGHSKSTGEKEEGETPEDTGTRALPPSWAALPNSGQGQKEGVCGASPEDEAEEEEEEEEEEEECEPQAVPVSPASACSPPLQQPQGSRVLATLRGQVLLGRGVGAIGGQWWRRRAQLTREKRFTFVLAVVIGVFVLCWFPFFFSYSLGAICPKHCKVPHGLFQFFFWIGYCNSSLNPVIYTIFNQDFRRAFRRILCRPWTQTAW
Method: To evaluate in radioligand binding assays the activity of compounds of the invention, human recombinant adrenergic α2B receptor expressed in Chinese hamster ovary (CHO-K1) cells (Uhlen S et al. Eur J. Pharmacol. 343(1):93, 1998) in a modified Tris-HCl buffer (50 mM Tris-HCl, pH 7.4, 12.5 mM MgCl2, 1 mM EDTA, 0.2% BSA) was used. Compounds of the invention were incubated with 2.5 nM [^3H]Rauwolscine for 60 minutes at 25° C. Non-specific binding was estimated in the presence of 10 μM Prozosin. Receptor proteins were filtered and washed, the filters were then counted to determine [^3H]Rauwolscine specifically bound. […] Biochemical assay results are presented as the percent inhibition of specific binding in Table 6.

| SMILES | Inhibition of ligand binding, Adren. alpha2B [%] |
| --- | --- |
| CN1CCc2c(c3cc(Cl)ccc3n2CCc2ccccn2)C1 [Compound 30, 8-chloro-2,3,4,5-tetrahydro-2-methyl-5-(2-(pyridin-2-yl)ethyl)-1H-pyrido[4,3-b]indole] | 102 |
| CCN1CCc2c(c3cc(C)ccc3n2CCc2ccc(C)nc2)C1 [Compound 31, 2-ethyl-2,3,4,5-tetrahydro-8-methyl-5-(2-(6-methylpyridin-3-yl)ethyl)-1H-pyrido[4,3-b]indole] | 91 |
| Cc1ccc2c(c1)c1c(n2CCc2ccc(Cl)cc2)CCN(C)C1 [Compound 32, 5-(4-chlorophenethyl)-2,3,4,5-tetrahydro-2,8-dimethyl-1H-pyrido[4,3-b]indole] | 110 |
| Cc1ccc2c(c1)c1c(n2CCc2ccc(F)cc2)CCN(C)C1 [Compound 33, 5-(4-fluorophenethyl)-2,3,4,5-tetrahydro-2,8-dimethyl-1H-pyrido[4,3-b]indole] | 100 |
| CN1CCc2c(c3cc(Cl)ccc3n2CCc2ccccc2)C1 [Compound 36, 8-chloro-2,3,4,5-tetrahydro-2-methyl-5-phenethyl-1H-pyrido[4,3-b]indole] | 104 |
| CN1CCc2c(c3cc(I)ccc3n2CCc2ccccc2F)C1 [Compound 89, 5-(2-fluorophenethyl)-2,3,4,5-tetrahydro-8-iodo-2-methyl-1H-pyrido[4,3-b]indole] | 116 |

biological target: T2, human recombinant serotonin (5-Hydroxytryptamine) 5-HT6 receptor (Homo sapiens, UniProt P50406); assay: Serotonin 5-HT6 radioligand binding ([3H]LSD); design: Inhibition of ligand binding, Ser. 5-HT6: concentration or dose not given beside the values; details: percent inhibition of specific binding
T2 construct: expressed in transfected cells; host or cells: human HeLa cells
Text: Receptor proteins were filtered and washed, the filters were then counted to determine [3H]LSD specifically bound. […] Biochemical assay results are presented as the percent inhibition of specific binding in Table 6.

T2 sequence (P50406 whole entry): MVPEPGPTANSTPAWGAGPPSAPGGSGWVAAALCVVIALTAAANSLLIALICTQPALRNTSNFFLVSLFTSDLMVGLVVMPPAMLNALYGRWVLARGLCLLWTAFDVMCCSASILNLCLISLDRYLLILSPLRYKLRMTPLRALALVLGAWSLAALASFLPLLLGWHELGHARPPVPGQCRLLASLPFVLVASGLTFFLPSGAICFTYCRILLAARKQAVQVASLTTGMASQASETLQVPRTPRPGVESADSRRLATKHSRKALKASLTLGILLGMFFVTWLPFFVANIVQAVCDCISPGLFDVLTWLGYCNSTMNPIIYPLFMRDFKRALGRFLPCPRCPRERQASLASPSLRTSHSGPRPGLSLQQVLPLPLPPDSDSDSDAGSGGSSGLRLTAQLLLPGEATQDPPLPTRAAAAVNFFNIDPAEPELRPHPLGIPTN

| SMILES | Inhibition of ligand binding, Ser. 5-HT6 [%] |
| --- | --- |
| CN1CCc2c(c3cc(Cl)ccc3n2CCc2ccccn2)C1 [Compound 30, 8-chloro-2,3,4,5-tetrahydro-2-methyl-5-(2-(pyridin-2-yl)ethyl)-1H-pyrido[4,3-b]indole] | 90 |
| CCN1CCc2c(c3cc(C)ccc3n2CCc2ccc(C)nc2)C1 [Compound 31, 2-ethyl-2,3,4,5-tetrahydro-8-methyl-5-(2-(6-methylpyridin-3-yl)ethyl)-1H-pyrido[4,3-b]indole] | 64 |
| Cc1ccc2c(c1)c1c(n2CCc2ccc(Cl)cc2)CCN(C)C1 [Compound 32, 5-(4-chlorophenethyl)-2,3,4,5-tetrahydro-2,8-dimethyl-1H-pyrido[4,3-b]indole] | 101 |
| Cc1ccc2c(c1)c1c(n2CCc2ccc(F)cc2)CCN(C)C1 [Compound 33, 5-(4-fluorophenethyl)-2,3,4,5-tetrahydro-2,8-dimethyl-1H-pyrido[4,3-b]indole] | 100 |
| CN1CCc2c(c3cc(Cl)ccc3n2CCc2ccccc2)C1 [Compound 36, 8-chloro-2,3,4,5-tetrahydro-2-methyl-5-phenethyl-1H-pyrido[4,3-b]indole] | 104 |
| CN1CCc2c(c3cc(I)ccc3n2CCc2ccccc2F)C1 [Compound 89, 5-(2-fluorophenethyl)-2,3,4,5-tetrahydro-8-iodo-2-methyl-1H-pyrido[4,3-b]indole] | 103 |

biological target: T3, human recombinant serotonin (5-Hydroxytryptamine) 5-HT2C receptor (Homo sapiens, UniProt P28335); assay: Serotonin 5-HT2C radioligand binding ([3H]Mesulergine); design: Inhibition of ligand binding, Ser. 5-HT2C: concentration or dose not given beside the values; details: percent inhibition of specific binding
T3 construct: expressed in transfected cells; host or cells: CHO-K1 cells
T3 sequence (P28335 33-458): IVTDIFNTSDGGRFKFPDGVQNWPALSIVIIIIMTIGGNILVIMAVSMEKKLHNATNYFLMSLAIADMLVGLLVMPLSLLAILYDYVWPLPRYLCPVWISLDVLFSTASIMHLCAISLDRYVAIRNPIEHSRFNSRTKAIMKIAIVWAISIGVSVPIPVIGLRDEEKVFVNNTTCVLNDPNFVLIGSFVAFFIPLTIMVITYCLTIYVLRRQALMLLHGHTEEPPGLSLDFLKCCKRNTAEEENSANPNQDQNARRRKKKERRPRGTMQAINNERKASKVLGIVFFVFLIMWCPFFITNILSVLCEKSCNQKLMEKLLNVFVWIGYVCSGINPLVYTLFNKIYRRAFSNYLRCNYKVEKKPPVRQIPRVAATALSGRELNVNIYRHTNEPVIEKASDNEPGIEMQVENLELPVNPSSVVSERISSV
Method: Compounds of the invention were incubated with 1 nM [^3H]Mesulergine for 60 minutes at 25° C. Non-specific binding was estimated in the presence of 1 μM Mianserin. Receptor proteins were filtered and washed, the filters were then counted to determine [^3H]Mesulergine specifically bound. […] Biochemical assay results are presented as the percent inhibition of specific binding in Table 6.

| SMILES | Inhibition of ligand binding, Ser. 5-HT2C [%] |
| --- | --- |
| CN1CCc2c(c3cc(Cl)ccc3n2CCc2ccccn2)C1 [Compound 30, 8-chloro-2,3,4,5-tetrahydro-2-methyl-5-(2-(pyridin-2-yl)ethyl)-1H-pyrido[4,3-b]indole] | 90 |
| CCN1CCc2c(c3cc(C)ccc3n2CCc2ccc(C)nc2)C1 [Compound 31, 2-ethyl-2,3,4,5-tetrahydro-8-methyl-5-(2-(6-methylpyridin-3-yl)ethyl)-1H-pyrido[4,3-b]indole] | 39 |
| Cc1ccc2c(c1)c1c(n2CCc2ccc(Cl)cc2)CCN(C)C1 [Compound 32, 5-(4-chlorophenethyl)-2,3,4,5-tetrahydro-2,8-dimethyl-1H-pyrido[4,3-b]indole] | 100 |
| Cc1ccc2c(c1)c1c(n2CCc2ccc(F)cc2)CCN(C)C1 [Compound 33, 5-(4-fluorophenethyl)-2,3,4,5-tetrahydro-2,8-dimethyl-1H-pyrido[4,3-b]indole] | 95 |
| CN1CCc2c(c3cc(Cl)ccc3n2CCc2ccccc2)C1 [Compound 36, 8-chloro-2,3,4,5-tetrahydro-2-methyl-5-phenethyl-1H-pyrido[4,3-b]indole] | 94 |
| CN1CCc2c(c3cc(I)ccc3n2CCc2ccccc2F)C1 [Compound 89, 5-(2-fluorophenethyl)-2,3,4,5-tetrahydro-8-iodo-2-methyl-1H-pyrido[4,3-b]indole] | 97 |

biological target: T4, human recombinant histamine H1 receptor (Homo sapiens, UniProt P35367); assay: Histamine H1 radioligand binding ([3H]Pyrilamine); details: 10 nM (0.01 μM) compound; […] [3H]Pyrilamine; read-out: Histamine Binding H1, percent inhibition of specific binding
T4 construct: expressed in transfected cells; host or cells: CHO cells
In short: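 Receptor expressed in CHO cells, assayed in 50 mM Tris-HCl pH 7.4 with 2 mM MgCl2, 100 mM NaCl, 250 mM sucrose. Compounds tested at 1 μM in 1% DMSO; non-specific binding set with 1 μM pyrilamine. Filter-bound radioactivity counted; values are percent inhibition of specific binding.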

T4 sequence (P35367 whole entry): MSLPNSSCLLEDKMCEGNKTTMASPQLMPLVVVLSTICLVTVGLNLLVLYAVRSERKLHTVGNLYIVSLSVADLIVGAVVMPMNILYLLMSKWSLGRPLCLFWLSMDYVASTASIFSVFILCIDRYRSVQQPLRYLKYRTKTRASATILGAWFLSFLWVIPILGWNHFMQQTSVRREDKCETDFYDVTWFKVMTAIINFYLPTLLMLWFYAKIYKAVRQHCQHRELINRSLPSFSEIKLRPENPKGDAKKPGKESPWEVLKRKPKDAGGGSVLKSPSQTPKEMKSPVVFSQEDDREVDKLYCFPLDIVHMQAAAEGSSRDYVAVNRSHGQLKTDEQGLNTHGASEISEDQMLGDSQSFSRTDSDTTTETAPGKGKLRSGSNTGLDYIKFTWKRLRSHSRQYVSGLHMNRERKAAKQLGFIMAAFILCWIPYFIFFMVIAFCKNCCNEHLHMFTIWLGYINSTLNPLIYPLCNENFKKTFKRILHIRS

| SMILES | inhibition at 0.01 µM [%] |
| --- | --- |
| Cc1ccc2c(c1)c1c(n2CCc2ccc(Cl)cc2)CCN(C)C1 [Compound 32, 5-(4-chlorophenethyl)-2,3,4,5-tetrahydro-2,8-dimethyl-1H-pyrido[4,3-b]indole] | 52 |
| Cc1ccc2c(c1)c1c(n2CCc2ccc(F)cc2)CCN(C)C1 [Compound 33, 5-(4-fluorophenethyl)-2,3,4,5-tetrahydro-2,8-dimethyl-1H-pyrido[4,3-b]indole] | 46 |
| CN1CCc2c(c3cc(Cl)ccc3n2CCc2ccccc2)C1 [Compound 36, 8-chloro-2,3,4,5-tetrahydro-2-methyl-5-phenethyl-1H-pyrido[4,3-b]indole] | 48 |

same assay, conditions: 0.1 μM compound; […] [3H]Pyrilamine; read-out: Histamine Binding H1, percent inhibition of specific binding

| SMILES | inhibition at 0.1 µM [%] |
| --- | --- |
| Cc1ccc2c(c1)c1c(n2CCc2ccc(Cl)cc2)CCN(C)C1 [Compound 32, 5-(4-chlorophenethyl)-2,3,4,5-tetrahydro-2,8-dimethyl-1H-pyrido[4,3-b]indole] | 87 |
| Cc1ccc2c(c1)c1c(n2CCc2ccc(F)cc2)CCN(C)C1 [Compound 33, 5-(4-fluorophenethyl)-2,3,4,5-tetrahydro-2,8-dimethyl-1H-pyrido[4,3-b]indole] | 89 |
| CN1CCc2c(c3cc(Cl)ccc3n2CCc2ccccc2)C1 [Compound 36, 8-chloro-2,3,4,5-tetrahydro-2-methyl-5-phenethyl-1H-pyrido[4,3-b]indole] | 91 |

same assay, conditions: 1 μM compound; […] [3H]Pyrilamine; read-out: Histamine Binding H1, percent inhibition of specific binding

| SMILES | inhibition at 1 µM [%] |
| --- | --- |
| CN1CCc2c(c3cc(Cl)ccc3n2CCc2ccccn2)C1 [Compound 30, 8-chloro-2,3,4,5-tetrahydro-2-methyl-5-(2-(pyridin-2-yl)ethyl)-1H-pyrido[4,3-b]indole] | 80 |
| CCN1CCc2c(c3cc(C)ccc3n2CCc2ccc(C)nc2)C1 [Compound 31, 2-ethyl-2,3,4,5-tetrahydro-8-methyl-5-(2-(6-methylpyridin-3-yl)ethyl)-1H-pyrido[4,3-b]indole] | 100 |
| Cc1ccc2c(c1)c1c(n2CCc2ccc(Cl)cc2)CCN(C)C1 [Compound 32, 5-(4-chlorophenethyl)-2,3,4,5-tetrahydro-2,8-dimethyl-1H-pyrido[4,3-b]indole] | 101 |
| Cc1ccc2c(c1)c1c(n2CCc2ccc(F)cc2)CCN(C)C1 [Compound 33, 5-(4-fluorophenethyl)-2,3,4,5-tetrahydro-2,8-dimethyl-1H-pyrido[4,3-b]indole] | 98 |
| CN1CCc2c(c3cc(Cl)ccc3n2CCc2ccccc2)C1 [Compound 36, 8-chloro-2,3,4,5-tetrahydro-2-methyl-5-phenethyl-1H-pyrido[4,3-b]indole] | 99 |
| CN1CCc2c(c3cc(I)ccc3n2CCc2ccccc2F)C1 [Compound 89, 5-(2-fluorophenethyl)-2,3,4,5-tetrahydro-8-iodo-2-methyl-1H-pyrido[4,3-b]indole] | 97 |

same assay, conditions: percent inhibition of specific binding; screened at 1 μM; read-out: Inhibition of ligand binding, Hist. H1

| SMILES | inhibition at 1 µM [%] |
| --- | --- |
| CN1CCc2c(c3cc(Cl)ccc3n2CCc2ccccn2)C1 [Compound 30, 8-chloro-2,3,4,5-tetrahydro-2-methyl-5-(2-(pyridin-2-yl)ethyl)-1H-pyrido[4,3-b]indole] | 80 |
| CCN1CCc2c(c3cc(C)ccc3n2CCc2ccc(C)nc2)C1 [Compound 31, 2-ethyl-2,3,4,5-tetrahydro-8-methyl-5-(2-(6-methylpyridin-3-yl)ethyl)-1H-pyrido[4,3-b]indole] | 100 |
| Cc1ccc2c(c1)c1c(n2CCc2ccc(Cl)cc2)CCN(C)C1 [Compound 32, 5-(4-chlorophenethyl)-2,3,4,5-tetrahydro-2,8-dimethyl-1H-pyrido[4,3-b]indole] | 101 |
| Cc1ccc2c(c1)c1c(n2CCc2ccc(F)cc2)CCN(C)C1 [Compound 33, 5-(4-fluorophenethyl)-2,3,4,5-tetrahydro-2,8-dimethyl-1H-pyrido[4,3-b]indole] | 98 |
| CN1CCc2c(c3cc(Cl)ccc3n2CCc2ccccc2)C1 [Compound 36, 8-chloro-2,3,4,5-tetrahydro-2-methyl-5-phenethyl-1H-pyrido[4,3-b]indole] | 99 |
| CN1CCc2c(c3cc(I)ccc3n2CCc2ccccc2F)C1 [Compound 89, 5-(2-fluorophenethyl)-2,3,4,5-tetrahydro-8-iodo-2-methyl-1H-pyrido[4,3-b]indole] | 97 |

biological target: T5, human recombinant serotonin (5-Hydroxytryptamine) 5-HT2A receptor (Homo sapiens, UniProt P28223); assay: Serotonin 5-HT2A radioligand binding ([3H]Ketanserin); details: percent inhibition of specific binding
T5 construct: expressed in transfected cells; host or cells: CHO-K1 cells
Method: Compounds of the invention were incubated with 0.5 nM [^3H]Ketanserin for 60 minutes at 25° C. Non-specific binding was estimated in the presence of 1 μM Mianserin. Receptor proteins were filtered and washed, the filters were then counted to determine [^3H]Ketanserin specifically bound. […] Biochemical assay results are presented as the percent inhibition of specific binding in Table 6.

T5 sequence (P28223 whole entry): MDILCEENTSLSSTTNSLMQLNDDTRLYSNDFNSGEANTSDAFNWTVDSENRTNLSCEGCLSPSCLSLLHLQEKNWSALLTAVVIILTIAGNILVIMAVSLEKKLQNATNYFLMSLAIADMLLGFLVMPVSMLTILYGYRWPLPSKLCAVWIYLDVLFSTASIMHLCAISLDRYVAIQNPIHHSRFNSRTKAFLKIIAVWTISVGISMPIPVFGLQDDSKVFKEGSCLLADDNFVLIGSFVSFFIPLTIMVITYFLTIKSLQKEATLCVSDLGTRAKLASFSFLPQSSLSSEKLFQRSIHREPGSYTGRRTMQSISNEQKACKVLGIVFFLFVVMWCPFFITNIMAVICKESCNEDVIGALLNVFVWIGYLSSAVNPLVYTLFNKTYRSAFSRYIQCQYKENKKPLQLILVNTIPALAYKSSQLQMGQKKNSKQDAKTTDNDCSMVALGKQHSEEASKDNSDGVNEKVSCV

| SMILES | Inhibition of ligand binding, Ser. 5-HT2A [%] |
| --- | --- |
| CN1CCc2c(c3cc(Cl)ccc3n2CCc2ccccn2)C1 [Compound 30, 8-chloro-2,3,4,5-tetrahydro-2-methyl-5-(2-(pyridin-2-yl)ethyl)-1H-pyrido[4,3-b]indole] | 91 |
| CCN1CCc2c(c3cc(C)ccc3n2CCc2ccc(C)nc2)C1 [Compound 31, 2-ethyl-2,3,4,5-tetrahydro-8-methyl-5-(2-(6-methylpyridin-3-yl)ethyl)-1H-pyrido[4,3-b]indole] | 65 |
| Cc1ccc2c(c1)c1c(n2CCc2ccc(Cl)cc2)CCN(C)C1 [Compound 32, 5-(4-chlorophenethyl)-2,3,4,5-tetrahydro-2,8-dimethyl-1H-pyrido[4,3-b]indole] | 96 |
| Cc1ccc2c(c1)c1c(n2CCc2ccc(F)cc2)CCN(C)C1 [Compound 33, 5-(4-fluorophenethyl)-2,3,4,5-tetrahydro-2,8-dimethyl-1H-pyrido[4,3-b]indole] | 97 |
| CN1CCc2c(c3cc(Cl)ccc3n2CCc2ccccc2)C1 [Compound 36, 8-chloro-2,3,4,5-tetrahydro-2-methyl-5-phenethyl-1H-pyrido[4,3-b]indole] | 98 |
| CN1CCc2c(c3cc(I)ccc3n2CCc2ccccc2F)C1 [Compound 89, 5-(2-fluorophenethyl)-2,3,4,5-tetrahydro-8-iodo-2-methyl-1H-pyrido[4,3-b]indole] | 90 |
